Experimental data: patent US20060223994A1, “Novel polymorph of Quetiapine fumarate and a process for its preparation” (Divi's Laboratories Limited, priority 2005, published 2006)

Legend:
[1] = Stability of Form IV under grinding (powder XRD and FT-IR after grinding); conditions: ground in glass pestle and mortar for 15 min
[2] = Stability on melting and cooling (air; NMR, IR, HPLC comparison)

Compound: OCCOCCN1CCN(C2=Nc3ccccc3Sc3ccccc32)CC1 [Form IV]
- XRD pattern and FT-IR spectrum of the material after grinding [1]: identical to the form IV
- chemical nature after heating ([2]; confirmed by NMR, IR, HPLC retention time and assay versus sample prepared per U.S. Pat. No. 4,879,288): does not also alter its chemical nature
- oxidative degradation on melting and cooling ([2]; melting and cooling in air): no significant degradation
